Experimental data: article PMC9506633, “Design, synthesis, anti-proliferative evaluation, docking, and MD simulations studies of new thiazolidine-2,4-diones targeting VEGFR-2 and apoptosis pathway” (PLoS ONE, 2022)

Assays:
[1] = Safety assay: cytotoxicity against Vero non-cancer cell line; format: cell-based; conditions: African green monkey, Vero cells (non-cancer cell line); Vero normal cell line
Protocol: In this work, the safety pattern of the synthesized derivatives 10a, b and 14a-c was also evaluated by testing their in vitro cytotoxicity against Vero non-cancer cell line using the MTT assay protocol.
Section in S1 File.
Mammalian cell lines culture […]
(§1) The cultured media were supplemented with 200 mM L-glutamine, 10.0% fetal bovine serum (Lonza), and 1.0% penicillin/streptomycin. Cells were seeded into 25.0 cm tissue culture flasks and incubated at 37 ◦C in a 5.0% CO 2 incubator for 24 h or till confluency.
(§2) The safety profiles of the tested compounds were checked on one non-cancerous cell line (Vero) to […]
of 100.0 µl of 6×10^4 cell/ml cells was seeded in to each well of a 96-well plate and then the plates were incubated at 37 °C in a humidified 5.0% CO2 incubator for 24 h. At the end of incubation period, the exhausted medium was replaced with 100.0 µl of different concentrations of the designated treatment (prepared in RPMI medium starting from 1.0 mM). The inoculated plates were incubated at the same growth conditions for another 24 h. At the end of incubation, cellular viability was assessed using MTS assay kit (Promega) according to the manual instruction. […]

HepG2 = assay: MTT anti-proliferative assay, HepG2; format: cell-based; conditions: for IC50: Homo sapiens, HepG2 cell line, MTT; for Selectivity index (HepG2): SI = Cytotoxicity against Vero cells / Cytotoxicity against HepG2 cell line
Protocol: (§3) The cytotoxicity effects of the synthesized candidates were evaluated against A549, Caco-2, HepG2, and MDA-mb-231 cell lines. MTT assay method was applied using the sub-IC50 concentrations of each compound as the treatment dose. Doxorubicin was used as a reference molecule. […] Also, it was noticed that Caco-2 was the most sensitive cell line.
(§4) The synthesized compounds were evaluated for their anti-proliferative activities against A549, Caco-2, HepG2, and MDA-mb-231 cell lines using the MTT assay protocol as described in S.1.2. Section in S1 File.
(§5) Mammalian cell lines culture
as §1, with “CaCo-2, and A549 cell lines were cultured on DMEM media, meanwhile MDA-MB-231 and hepG-2 cell line were cultured on RBMI media. The” for “The”
as §2
(§6) of 100.0 µl of 6×10^4 cell/ml cells was seeded in to each well of a 96-well plate and then the plates were incubated at 37 °C in a humidified 5.0% CO2 incubator for 24 h. At the end of incubation period, the exhausted medium was replaced with 100.0 µl of different concentrations of the designated treatment (prepared in RPMI medium starting from 1.0 mM). The inoculated plates were incubated at the same growth conditions for another 24 h. At the end of incubation, cellular viability was assessed using MTS assay kit (Promega) according to the manual instruction.
(§7) S.1.2. In-vitro anticancer activity
(§8) Anticancer activities of the tested compounds against CaCo-2, MDA-MB-231, and hepG-2 cell lines were quantified using MTS assay kit (Promega) as described by the Manufacturer. […]

A549 = assay: MTT anti-proliferative assay, A549; format: cell-based; conditions: for IC50: Homo sapiens, A549 cell line, MTT; for Selectivity index (A549): SI = Cytotoxicity against Vero cells / Cytotoxicity against A549 cell line
Protocol: as §3, §4, §5
as §1, with “CaCo-2, and A549 cell lines were cultured on DMEM media, meanwhile MDA-MB-231 and hepG-2 cell line were cultured on RBMI media. The” for “The”
as §2, §6, §7, §8

MDA-mb-231 = assay: MTT anti-proliferative assay, MDA-mb-231; format: cell-based; conditions: for IC50: Homo sapiens, MDA-mb-231 cell line, MTT; for Selectivity index (MDA-MB-231): SI = Cytotoxicity against Vero cells / Cytotoxicity against MDA-MB-231 cell line
Protocol: as §3, §4, §5
as §1, with “CaCo-2, and A549 cell lines were cultured on DMEM media, meanwhile MDA-MB-231 and hepG-2 cell line were cultured on RBMI media. The” for “The”
as §2, §6, §7, §8

Caco-2 = assay: MTT anti-proliferative assay, Caco-2; format: cell-based; conditions: Homo sapiens; Caco-2 cell line, MTT; read-out: Anti-proliferative activity (IC50 μM) Caco2
Protocol: as §3, §4, §5
as §1, with “CaCo-2, and A549 cell lines were cultured on DMEM media, meanwhile MDA-MB-231 and hepG-2 cell line were cultured on RBMI media. The” for “The”
as §2, §6, §7, §8

[2] = MTT anti-proliferative assay, Caco-2; format: cell-based; conditions: African green monkey (Vero); human (Caco-2); SI = Cytotoxicity against Vero cells / Cytotoxicity against Caco-2 cell line; read-out: Selectivity index (Caco-2)
Protocol: as §3, §4, §5
as §1, with “CaCo-2, and A549 cell lines were cultured on DMEM media, meanwhile MDA-MB-231 and hepG-2 cell line were cultured on RBMI media. The” for “The”
as §2, §6, §7, §8

VEGFR-2 = target: T1, VEGFR-2 (Homo sapiens, UniProt P35968); assay: In vitro VEGFR-2 inhibition (VEGFR-2 ELISA kit); format: biochemical; conditions: for IC50: ELISA kit; for HillSlope (best-fit value) / LogIC50 (best-fit value): dose-response curve fit, raw data S.5
T1 construct: purchased
T1 sequence (P35968 20-1356): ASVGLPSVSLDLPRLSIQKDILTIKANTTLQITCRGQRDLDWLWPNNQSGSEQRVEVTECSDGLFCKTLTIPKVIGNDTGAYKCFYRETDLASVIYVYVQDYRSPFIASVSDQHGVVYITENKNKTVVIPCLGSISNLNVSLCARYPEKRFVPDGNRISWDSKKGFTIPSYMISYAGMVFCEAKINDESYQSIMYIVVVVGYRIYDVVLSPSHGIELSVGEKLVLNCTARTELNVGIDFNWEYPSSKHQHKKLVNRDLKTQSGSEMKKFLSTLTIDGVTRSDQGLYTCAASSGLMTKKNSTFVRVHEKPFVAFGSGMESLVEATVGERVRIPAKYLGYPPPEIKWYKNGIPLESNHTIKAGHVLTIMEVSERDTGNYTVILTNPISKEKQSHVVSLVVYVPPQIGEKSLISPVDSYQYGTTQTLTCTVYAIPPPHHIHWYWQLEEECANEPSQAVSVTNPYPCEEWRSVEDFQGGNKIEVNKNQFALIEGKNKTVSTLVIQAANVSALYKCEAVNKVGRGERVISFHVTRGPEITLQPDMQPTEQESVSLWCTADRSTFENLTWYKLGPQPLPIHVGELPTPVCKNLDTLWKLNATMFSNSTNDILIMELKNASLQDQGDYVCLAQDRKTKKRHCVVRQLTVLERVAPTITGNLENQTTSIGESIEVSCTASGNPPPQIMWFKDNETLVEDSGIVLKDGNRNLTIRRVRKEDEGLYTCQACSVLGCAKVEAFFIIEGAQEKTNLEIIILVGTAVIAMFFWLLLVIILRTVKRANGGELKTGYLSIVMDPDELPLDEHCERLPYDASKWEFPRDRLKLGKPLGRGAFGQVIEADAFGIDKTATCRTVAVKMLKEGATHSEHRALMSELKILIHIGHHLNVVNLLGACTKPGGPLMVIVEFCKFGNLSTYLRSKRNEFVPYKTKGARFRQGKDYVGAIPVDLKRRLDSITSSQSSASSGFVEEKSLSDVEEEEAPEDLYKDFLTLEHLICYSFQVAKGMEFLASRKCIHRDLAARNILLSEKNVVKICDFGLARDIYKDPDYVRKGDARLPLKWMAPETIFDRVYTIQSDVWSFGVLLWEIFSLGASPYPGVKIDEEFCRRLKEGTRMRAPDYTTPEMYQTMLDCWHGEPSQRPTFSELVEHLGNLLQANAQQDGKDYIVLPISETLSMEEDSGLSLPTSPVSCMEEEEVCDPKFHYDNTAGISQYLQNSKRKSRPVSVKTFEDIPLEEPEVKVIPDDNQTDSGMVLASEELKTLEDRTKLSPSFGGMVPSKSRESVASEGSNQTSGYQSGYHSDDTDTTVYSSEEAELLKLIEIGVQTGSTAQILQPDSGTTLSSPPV
Protocol: Compounds 10a, b and 14a-c were evaluated for their VEGFR-2inhibitory activity.
VEGFR-2 ELISA kit was used in this test as described in S.1.3. Section in S1 File. […]
S.1.3. In vitro VEGFR-2 kinase assay
All the synthesized compounds were tested for its inhibitory activity against VEGFR-2. Human VEGFR-2 ELISA kit (Enzyme-Linked Immunosorbent Assay) was utilized in this test. At first, specific antibody for VEGFR-2 was seeded on a 96-well plate and 100 μL of the standard solution or the tested compound was added, all were incubated at room temperature for 2.5 h. Then washed, 100 μL of the prepared biotin antibody was added, then incubated at room temperature for additional 1 h. and washed. Then, 100 μL of streptavidin solution was added and incubated for 45 min. at room temperature. Washed again, 100 μL of TMB Substrate reagent was added and incubated for 30 min. at room temperature. 50 μL of the stop solution was added, then read at 450 nm immediately. The standard curve was drawn, concentrations on the X-axis and the absorbance

Compound	IC50 at 24 h [1] [µM]	IC50 (HepG2) [µM]	Selectivity index (HepG2) (HepG2)	IC50 (A549) [µM]	Selectivity index (A549) (A549)	IC50 (MDA-mb-231) [µM]	Selectivity index (MDA-MB-231) (MDA-mb-231)	IC50 (Caco-2) [µM]	selectivity ratio [2]	IC50 (VEGFR-2) [µM]	HillSlope (best-fit value) (VEGFR-2)	LogIC50 (best-fit value) (VEGFR-2)
O=C(CN1C(=O)SC(=C2C(=O)Nc3ccccc32)C1=O)Nc1cc(Cl)ccc1Cl [Compound 14b, N-(2,5-Dichlorophenyl)-2-(2,4-dioxo-5-(2-oxoindolin-3-ylidene)thiazolidin-3-yl)acetamide]	1270 ± 126	42.5 ± 3.2	29.917	292 ± 25.1	4.340	94.5 ± 8.4	13.555	74 ± 6.5	17.1	0.0858 ± 0.0076	-0.5620	1.934 Log (nM)
O=C(CN1C(=O)SC(=C2C(=O)Nc3ccccc32)C1=O)NCCc1ccccc1 [Compound 14c, 2-(2,4-Dioxo-5-(2-oxoindolin-3-ylidene)thiazolidin-3-yl)-N-phenethylacetamide]	–	92 ± 8.1	10.601	282 ± 27.3	3.463	484 ± 47.2	2.020	192 ± 18.1	5.07	0.0815 ± 0.0073	-0.4220	1.911 Log (nM)
COc1cccc2c1C(=O)c1c(O)c3c(c(O)c1C2=O)C[C@@](O)(C(=O)CO)C[C@@H]3O[C@H]1C[C@H](N)[C@H](O)[C@H](C)O1 [Doxorubicin, reference compound]	–	1.2 ± 0.07	–	86.4 ± 7.1	–	0.98 ± 0.001	–	3.5 ± 0.22	–	–	–	–
